Test results: patent US12152048B2, “Nitroxoline prodrug and use thereof” (Jiangsu Yahong Meditech Co., Ltd., priority 2018, dated 2024)
In brackets after ≈: the same amount, converted by molar mass.

What was measured:
[1] = Stability in monkey plasma; type: in vitro ADME
Excerpt: (§1) Experimental instruments: thermostatic shaker (SHA-B, Guohua Electric Appliance Co., Ltd.); centrifuge (5810R, Eppendorf); mass spectrometry (AP4000, Applied Biosystems, USA); liquid chromatography (LC-30AD, Shimadzu); sample injector (CTC Analytics AG System, CTC).
(§2) Test animals: plasma of human (batch number: BRH1343165), rat (batch number: RAT336728), mouse (batch number: MSE280000), dog (batch number: BGL99137) and monkey (batch number: PH-Monkey-20180821) are purchased from Shanghai Sixin Biological Technology Co., Ltd.
(§3) Experimental process: the compound of the present invention was dissolved in an organic solvent to obtain a 1 mM working solution. 3 μL of the working solution were added to 597 μL of pre-incubated human or rat plasma and mixed well. 50 μL of the solution were immediately taken out as the 0 minute sample. The remaining sample was incubated at 37° C., and 50 μL of sample were taken out at 15, 30, 60 and 120 minutes respectively. All the samples taken out were immediately processed to precipitate protein, and centrifuged to obtain a supermate for the determination of the compound concentration by LC/MS/MS.

[2] = Stability in human liver microsome; conditions: 2 μM, 37° C., 30 minutes
Procedure: (§4) Experimental instruments: thermostatic shaker (SHA-B, Guohua Electric Appliance Co., Ltd.); centrifuge (5810R, Eppendorf); mass spectrometry (API4000, Applied Biosystems, USA); liquid chromatography (LC-30AD, Shimadzu); sample injector (CTC Analytics AG System, CTC).
(§5) Experimental process: 25 μg/mL alamethicin (Aldrich), 5 mM magnesium chloride and 0.5 mg/mL microsome (XENOTECH) were added to 100 mM phosphate buffer to obtain a coenzyme-free reaction solution. A portion of the coenzyme-free reaction solution was added with 1 mM reductive nicotinamide adenine dinucleotide phosphate (Aldrich) and 5 mM uridine diphosphate glucuronic acid (Aldrich) to obtain a coenzyme-containing reaction solution. The working solution of the compound of the present invention was added to the two reaction solutions so that the final concentration of the compound was 2 μM. Immediately after mixing well, 50 μL of the solution were taken out as the 0 minute sample, and 50 μL of the remaining sample were taken out after incubating at 37° C. for 30 minutes. All the samples taken out were immediately processed to precipitate protein, and centrifuged to obtain a supernate for the determination of the compound concentration by LC/MS/MS.

[3] = Stability in rat liver microsome; conditions: 2 μM, 37° C., 30 minutes
Procedure: as §4, §5

[4] = Stability in mouse liver microsome; type: in vitro ADME; conditions: 2 μM, 37° C., 30 minutes
[5] = Pharmacokinetics assay in dog (nitroxoline concentration in plasma after single intravenous or oral administration); type: in vivo, beagle dog; conditions: for absorption in beagle dogs compared with nitroxoline: conclusion in words; for AUC0-inf: nitroxoline in beagle dog plasma
Excerpt: Nitroxoline is mainly metabolized by the phase II metabolism in liver with a fast metabolism rate, so it has a short half-life in the body. The present invention modified its structure and 13 compounds of formula (I) were obtained through chemical synthesis. The change of nitroxoline concentration in dog plasma after a single intravenous or oral administration of nitroxoline and the compound of formula (I) was studied to evaluate the pharmacokinetic behavior of nitroxoline and the compound of formula (I) in dog body.
Male beagle dog (Beijing Marshall Biotechnology Co., Ltd., Certificate No.: SCXK (BJ) 2016-0001, Qualified number: 11400600001728), 3 dogs per group, weight 10 to 13 kg, 20 to 22 months old. The dogs were fasted overnight before the administration with free access to water, and fed 4 hours after the administration. The test compound was added to an EP tube, and then added with DMSO, solutol and sterilized water for injection (the volume ratio of the three was 1:2:17, v:v:v). The EP tube was subjected to ultrasound for 20 minutes to make the test compound dissolve well (compound concentration: 0.005 mmol/mL). The dose for intravenous administration was 0.01 mmol/kg, and the dose for oral administration was 0.1 mmol/kg. 0.3 ml of whole blood was collected from jugular vein before the administration (0 hour) and 0.0833, 0.25, 0.5, 1, 2, 4, 6, 8, 10 and 12 hours after the administration (sampling points can be adjusted according to the specific situation) respectively. The blood sample was placed in a centrifuge tube containing EDTA-K2 anticoagulant (Aldrich), and the centrifuge tube was left to stand in ice. The blood sample was centrifuged for 10 minutes at 1530 g within 0.5 hour to obtain all clean plasma. The plasma was placed in another clean centrifuge tube, and stored in a refrigerator at −20° C. for later use.
Solution for standard curve was formulated. 1000 μL of internal standard working solution (containing a solution of verapamil (5 ng/mL, Aldrich), glibenclamide (50 ng/mL, Aldrich) and diclofenac (50 ng/mL, Aldrich) in acetonitrile) was added to 10 μL of the solution for standard curve and sample, and the mixture was shaked by vortex for 5 minutes. The mixture was centrifuged for 10 minutes at 4° C., 3700 rpm. 60 μL of the supernatant were placed in an injection tube, and mixed with 120 μL of water. 10 μL of the solution were injected into the liquid chromatography-mass spectrometry system for determination. The pharmacokinetic parameters were calculated by the WinNonlin V 6.2 non-compartmental model.

[6] = Determination of water solubility in phosphate buffer; type: physicochemical; conditions: for solubility at 24 h: thermodynamic from solid; for water solubility compared with nitroxoline: conclusion in words
Summary of the method: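 2 mg solid compound shaken in 500 μL phosphate buffer (pH 1.2, 4.5, 6.8 or 7.4) in a sealed flask, room temperature, 24 h. Suspension vacuum-filtered; dissolved concentration in filtrate quantified by LC/MS/MS.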

Stability in dog plasma = type: in vitro ADME
Excerpt: as §1, §2, §3

[7] = Stability in dog liver microsome; conditions: 2 μM, 37° C., 30 minutes
[8] = Stability in human plasma
Excerpt: as §1, §2, §3

[9] = Stability in plasma, overall conclusion (species not stated); conditions: conclusion in words
[10] = Stability in liver microsome, overall conclusion (species not stated); type: in vitro ADME; conditions: conclusion in words
[11] = Stability in mouse plasma; type: in vitro ADME
Excerpt: as §1, §2, §3

[12] = intravenous administration 0.01 mmol/kg
[13] = oral administration 0.1 mmol/kg
[14] = aqueous buffer, phosphate buffer pH 4.5, room temperature
[15] = aqueous buffer, phosphate buffer pH 6.8, room temperature
[16] = aqueous buffer, phosphate buffer pH 7.4, room temperature
[17] = simulated gastric fluid, phosphate buffer pH 1.2, room temperature

Excerpt for Stability in rat plasma: as §1, §2, §3

SMILES | Percentage of the compound remaining in plasma (Stability in rat plasma; 0 minute) [%] | Percentage of the compound remaining in plasma (Stability in rat plasma; 37° C., 15 minutes) [%] | Percentage of the compound remaining in plasma (Stability in rat plasma; 37° C., 30 minutes) [%] | Percentage of the compound remaining in plasma (Stability in rat plasma; 37° C., 60 minutes) [%] | Percentage of the compound remaining in plasma (Stability in rat plasma; 37° C., 120 minutes) [%] | Percentage of the compound remaining in human liver microsome ([2]; with coenzyme) [%] | Percentage of the compound remaining in human liver microsome ([2]; without coenzyme) [%] | Percentage of the compound remaining in rat liver microsome ([3]; with coenzyme) [%] | Percentage of the compound remaining in rat liver microsome ([3]; without coenzyme) [%] | Percentage of the compound remaining in mouse liver microsome ([4]; with coenzyme) [%] | Percentage of the compound remaining in mouse liver microsome ([4]; without coenzyme) [%] | AUC0-inf [5, 13] [ng*hmL^−1] | solubility at 24 h [6, 16] [µg/mL] | Percentage of the compound remaining in dog liver microsome ([7]; with coenzyme) [%] | Percentage of the compound remaining in dog liver microsome ([7]; without coenzyme) [%] | Percentage of the compound remaining in plasma ([8]; 0 minute) [%] | Percentage of the compound remaining in plasma ([8]; 37° C., 15 minutes) [%] | Percentage of the compound remaining in plasma ([8]; 37° C., 30 minutes) [%] | Percentage of the compound remaining in plasma ([8]; 37° C., 60 minutes) [%] | Percentage of the compound remaining in plasma ([8]; 37° C., 120 minutes) [%] | other results
CN(CC(O)CO)C(=O)OCOc1ccc([N+](=O)[O-])c2cccnc12 (stereo not drawn) [Compound 52, (5-nitroquinolin-8-yloxy)methyl 2,3-dihydroxypropyl(methyl)carbamate] | 100.0 | 102.5 | 90.1 | 84.6 | 71.3 | 102.24 | 108.46 | 101.34 | 99.39 | 95.16 | 105.69 | – | 687 (≈ 1960 µM) | 85.67 | 91.82 | 100.0 | 95.6 | 94.1 | 89.2 | 83.3 | stability in plasma [9]: high stability; stability in microsome [10]: high stability; water solubility compared with nitroxoline [6]: increased by several times
CC(C)C(=O)N1CCC[C@H]1C(=O)OCOc1ccc([N+](=O)[O-])c2cccnc12 [Compound 20, (S)-(5-nitroquinolin-8-yloxy)methyl 1-isopropionylpyrrolidine-2-carboxylate] | – | – | – | – | – | 26.92 | 59.42 | 3.64 | 46.82 | 0.09 | 49.07 | 8750 | 978 (≈ 2530 µM) | 33.13 | 53.50 | – | – | – | – | – | absorption in beagle dogs compared with nitroxoline [5]: well absorbed; AUC0-inf [5, 12]: 1290 ng*hmL^−1; solubility at 24 h [6, 14]: 1050 µg/mL (≈ 2700 µM); solubility at 24 h [6, 15]: 962 µg/mL (≈ 2480 µM); water solubility compared with nitroxoline [6]: increased by several times; solubility at 24 h [6, 17]: 1010 µg/mL (≈ 2610 µM)
O=[N+]([O-])c1ccc(O)c2ncccc12 [Nitroxoline] | 100.0 | 93.9 | 94.1 | 95.3 | 88.4 | – | – | – | – | – | – | 4780 | 352 (≈ 1850 µM) | – | – | 100.0 | 99.3 | 98.3 | 100.6 | 91.6 | Percentage of the compound remaining in plasma ([1]; 0 minute): 100.0%; Percentage of the compound remaining in plasma ([1]; 37° C., 15 minutes): 101.2%; Percentage of the compound remaining in plasma ([1]; 37° C., 30 minutes): 104.0%; Percentage of the compound remaining in plasma ([1]; 37° C., 60 minutes): 101.8%; Percentage of the compound remaining in plasma ([1]; 37° C., 120 minutes): 100.4%; Percentage of the compound remaining in plasma ([11]; 0 minute): 100.0%; Percentage of the compound remaining in plasma ([11]; 37° C., 15 minutes): 95.8%; Percentage of the compound remaining in plasma ([11]; 37° C., 30 minutes): 97.4%; Percentage of the compound remaining in plasma ([11]; 37° C., 60 minutes): 97.4%; Percentage of the compound remaining in plasma ([11]; 37° C., 120 minutes): 93.0%; AUC0-inf [5, 12]: 3300 ng*hmL^−1; Percentage of the compound remaining in plasma (Stability in dog plasma; 0 minute): 100.0%; Percentage of the compound remaining in plasma (Stability in dog plasma; 37° C., 15 minutes): 100.8%; Percentage of the compound remaining in plasma (Stability in dog plasma; 37° C., 30 minutes): 101.1%; Percentage of the compound remaining in plasma (Stability in dog plasma; 37° C., 60 minutes): 95.3%; Percentage of the compound remaining in plasma (Stability in dog plasma; 37° C., 120 minutes): 98.4%

The next lines start with results.

Percentage of the compound remaining in plasma (Stability in rat plasma; 0 minute) [%] | Percentage of the compound remaining in plasma (Stability in rat plasma; 37° C., 15 minutes) [%] | Percentage of the compound remaining in plasma (Stability in rat plasma; 37° C., 30 minutes) [%] | Percentage of the compound remaining in plasma (Stability in rat plasma; 37° C., 60 minutes) [%] | Percentage of the compound remaining in plasma (Stability in rat plasma; 37° C., 120 minutes) [%] | Percentage of the compound remaining in human liver microsome ([2]; with coenzyme) [%] | Percentage of the compound remaining in human liver microsome ([2]; without coenzyme) [%] | Percentage of the compound remaining in rat liver microsome ([3]; with coenzyme) [%] | Percentage of the compound remaining in rat liver microsome ([3]; without coenzyme) [%] | Percentage of the compound remaining in mouse liver microsome ([4]; with coenzyme) [%] | Percentage of the compound remaining in mouse liver microsome ([4]; without coenzyme) [%] | AUC0-inf [5, 13] [ng*hmL^−1] | solubility at 24 h [6, 16] [µg/mL] | Percentage of the compound remaining in dog liver microsome ([7]; with coenzyme) [%] | Percentage of the compound remaining in dog liver microsome ([7]; without coenzyme) [%] | Percentage of the compound remaining in plasma ([8]; 0 minute) [%] | Percentage of the compound remaining in plasma ([8]; 37° C., 15 minutes) [%] | Percentage of the compound remaining in plasma ([8]; 37° C., 30 minutes) [%] | Percentage of the compound remaining in plasma ([8]; 37° C., 60 minutes) [%] | Percentage of the compound remaining in plasma ([8]; 37° C., 120 minutes) [%] | SMILES | other results
100.0 | 70.2 | 67.8 | 48.0 | 35.3 | 0.06 | 0.25 | 0.08 | 2.92 | 0.02 | 0.09 | 2474 | 6.62 (≈ 19.9 µM) | 0.07 | 0.28 | 100.0 | 97.2 | 98.0 | 94.1 | 84.6 | CCC(CC)C(=O)OC(C)Oc1ccc([N+](=O)[O-])c2cccnc12 (stereo not drawn) [Compound 51, 1-(5-nitroquinolin-8-yloxy)ethyl 2-ethylbutanoate] | Percentage of the compound remaining in plasma ([1]; 0 minute): 100.0%; Percentage of the compound remaining in plasma ([1]; 37° C., 15 minutes): 96.4%; Percentage of the compound remaining in plasma ([1]; 37° C., 30 minutes): 87.0%; Percentage of the compound remaining in plasma ([1]; 37° C., 60 minutes): 78.1%; Percentage of the compound remaining in plasma ([1]; 37° C., 120 minutes): 69.0%; absorption in beagle dogs compared with nitroxoline [5]: well absorbed; AUC0-inf [5, 12]: 1153 ng*hmL^−1; solubility at 24 h [6, 14]: 7.07 µg/mL (≈ 21.3 µM); solubility at 24 h [6, 15]: 5.69 µg/mL (≈ 17.1 µM); solubility at 24 h [6, 17]: 91.4 µg/mL (≈ 275 µM); Percentage of the compound remaining in plasma (Stability in dog plasma; 0 minute): 100.0%; Percentage of the compound remaining in plasma (Stability in dog plasma; 37° C., 15 minutes): 103.7%; Percentage of the compound remaining in plasma (Stability in dog plasma; 37° C., 30 minutes): 93.7%; Percentage of the compound remaining in plasma (Stability in dog plasma; 37° C., 60 minutes): 89.1%; Percentage of the compound remaining in plasma (Stability in dog plasma; 37° C., 120 minutes): 93.3%
100.0 | 2.2 | 0.0 | 0.0 | 0.0 | 0.15 | 0.88 | 0.16 | 1.10 | 0.44 | 0.34 | 1760 | 13 (≈ 40.9 µM) | 0.19 | 4.06 | 100.0 | 68.5 | 39.5 | 11.9 | 1.6 | CCC(CC)C(=O)OCOc1ccc([N+](=O)[O-])c2cccnc12 [Compound 5, (5-nitroquinolin-8-yloxy)methyl 2-ethylbutanoate] | Percentage of the compound remaining in plasma ([1]; 0 minute): 100.0%; Percentage of the compound remaining in plasma ([1]; 37° C., 15 minutes): 0.0%; Percentage of the compound remaining in plasma ([1]; 37° C., 30 minutes): 0.0%; Percentage of the compound remaining in plasma ([1]; 37° C., 60 minutes): 0.0%; Percentage of the compound remaining in plasma ([1]; 37° C., 120 minutes): 0.0%; absorption in beagle dogs compared with nitroxoline [5]: well absorbed; solubility at 24 h [6, 14]: 13.1 µg/mL (≈ 41.1 µM); solubility at 24 h [6, 15]: 11.1 µg/mL (≈ 34.9 µM); solubility at 24 h [6, 17]: 204 µg/mL (≈ 640 µM); Percentage of the compound remaining in plasma (Stability in dog plasma; 0 minute): 100.0%; Percentage of the compound remaining in plasma (Stability in dog plasma; 37° C., 15 minutes): 75.0%; Percentage of the compound remaining in plasma (Stability in dog plasma; 37° C., 30 minutes): 50.6%; Percentage of the compound remaining in plasma (Stability in dog plasma; 37° C., 60 minutes): 27.1%; Percentage of the compound remaining in plasma (Stability in dog plasma; 37° C., 120 minutes): 12.0%
